Experimental data from US8367843B2, “Phenol derivative” (Fuji Yakuhin Co., Ltd., priority 2009, dated 2013).

Tests used:
Type in all cases: in vivo
[1] = tested on: male Wistar/ST rats (pyrazinamide model); assay: Uricosuric action in rat pyrazinamide model; conditions: urinary uric acid/creatinine ratio as percentage to control, test substance 30 mg/kg oral, 30 min after pyrazinamide 400 mg/kg, urine collected 2 to 3 hours after administration, read-out: Uricosuric action (control = 100)
Description: Uricosuric Action in Rat Pyrazinamide Model
Pyrazinamide suspended in a 0.5% methyl cellulose solution (0.5% MC) was orally administered to 7- and 8-week-old male Wistar/ST rats (4 rats per group) fasted for about 16 hours in a dose of 400 mg/kg. After 30 minutes, a test substance suspended in 0.5% MC was orally administered in a dose of 30 mg/kg, and urine was collected for 1 hour in a range from 2 to 3 hours after administration. At the beginning of collection of urine and after completion of collection of urine, rats were forced to urinate by pressing the abdomen of the rat. The concentration of uric acid and that of creatinine in urine were measured by a kit, and a ratio of the concentration of uric acid to that of creatinine was used as an indicator of a uricosuric action. The action of each test substance was expressed by percentage to control.

[2] = Concentration of unchanged compound in urine in rat; conditions: 3 mg/kg oral, fasted male Wistar/ST rats, urine collected for 4 hours after administration, HPLC
Description: Concentration of Unchanged Compound in Urine in Rat
A test substance suspended in 0.5% MC was orally administered to two male Wistar/ST rats fasted for about 16 hours in a dose of 3 mg/kg. Immediately after administration, urine was collected for 4 hours. After completion of collection of urine, urine remaining in the bladder was completely excreted by pressing the abdomen of the rat. The concentration of an unchanged compound in urine was measured by HPLC and expressed by a molar concentration (μM).

[3] = tested on: male Wistar/ST rats (pyrazinamide model); assay: Uricosuric action in rat pyrazinamide model; conditions: po, as above, but test substance 100 mg/kg

SMILES | response vs control in vivo at 30 mg/kg [1] [%] | Concentration of unchanged compound in urine [2] [µM] | response vs control in vivo at 100 mg/kg [3] [%]
CCc1oc2ccccc2c1C(=O)c1cc(Br)c(O)c(Br)c1 [Benzbromarone, reference compound] | 114 | 0 | 
O=C(c1cc(Cl)c(O)c(Cl)c1)N1CS(=O)(=O)c2ccccc21 [Example 1, 3-(3,5-dichloro-4-hydroxybenzoyl)-1,1-dioxo-2,3-dihydro-1,3-benzothiazole] | 169 | 9.8 | 
N#Cc1cc(C(=O)N2CS(=O)(=O)c3ccccc32)cc(C(F)(F)F)c1O [Example 4, 3-(3-cyano-4-hydroxy-5-trifluoromethylbenzoyl)-1,1-dioxo-2,3-dihydro-1,3-benzothiazole] | 201 | 51.8 | 
N#Cc1cc(C(=O)N2CSc3ccccc32)cc(C(F)(F)F)c1O [Example 5, 3-(3-cyano-4-hydroxy-5-trifluoromethylbenzoyl)-2,3-dihydro-1,3-benzothiazole] | 136 | 1.1 | 
N#Cc1cc(C(=O)N2CS(=O)(=O)c3ccccc32)cc(Cl)c1O [Example 7, 3-(3-chloro-5-cyano-4-hydroxybenzoyl)-1,1-dioxo-2,3-dihydro-1,3-benzothiazole] | 178 | 125 | 
CCc1cc(C(=O)N2CS(=O)(=O)c3ccccc32)cc(C#N)c1O [Example 12, 3-(3-cyano-5-ethyl-4-hydroxybenzoyl)-1,1-dioxo-2,3-dihydro-1,3-benzothiazole] | 187 | 15.8 | 
N#Cc1cc(C(=O)N2CS(=O)(=O)c3ccccc32)cc(C2CC2)c1O [Example 13, 3-(3-cyano-5-cyclopropyl-4-hydroxybenzoyl)-1,1-dioxo-2,3-dihydro-1,3-benzothiazole] | 172 | 3.9 | 
C#Cc1cc(C(=O)N2CS(=O)(=O)c3ccccc32)cc(C#N)c1O [Example 14, 3-(3-cyano-5-ethynyl-4-hydroxybenzoyl)-1,1-dioxo-2,3-dihydro-1,3-benzothiazole] | 164 | 119 | 
CSc1cc(C(=O)N2CS(=O)(=O)c3ccccc32)cc(C#N)c1O [Example 15, 3-(3-cyano-4-hydroxy-5-methylsulfanylbenzoyl)-1,1-dioxo-2,3-dihydro-1,3-benzothiazole] | 204 | 68.6 | 
O=C(c1cc(Cl)c(O)c(C(F)(F)F)c1)N1CS(=O)(=O)c2ccccc21 [Example 18, 3-(3-chloro-4-hydroxy-5-trifluoromethylbenzoyl)-1,1-dioxo-2,3-dihydro-1,3-benzothiazole] | 202 | 1 | 
O=C(c1cc(F)c(O)c(Cl)c1)N1CS(=O)(=O)c2ccccc21 [Example 19, 3-(3-chloro-5-fluoro-4-hydroxybenzoyl)-1,1-dioxo-2,3-dihydro-1,3-benzothiazole] | 129 | 55.2 | 
CSc1cc(C(=O)N2CS(=O)(=O)c3ccccc32)cc(Cl)c1O [Example 21, 3-(3-chloro-4-hydroxy-5-methylsulfanylbenzoyl)-1,1-dioxo-2,3-dihydro-1,3-benzothiazole] | 120 | 1.9 | 
CN(C)C(=O)c1cc(C(=O)N2CS(=O)(=O)c3ccccc32)cc(C(F)(F)F)c1O [Example 27, 3-(3-dimethylcarbamoyl-4-hydroxy-5-trifluoromethylbenzoyl)-1,1-dioxo-2,3-dihydro-1,3-benzothiazole] | 146 | 30.6 | 
CCSc1cc(C(=O)N2CS(=O)(=O)c3ccccc32)cc(C#N)c1O [Example 34, 3-(3-cyano-5-ethylsulfanyl-4-hydroxybenzoyl)-1,1-dioxo-2,3-dihydro-1,3-benzothiazole] | 208 | 23.5 | 
CC(C)Sc1cc(C(=O)N2CS(=O)(=O)c3ccccc32)cc(C#N)c1O [Example 35, 3-(3-cyano-4-hydroxy-5-isopropylsulfanylbenzoyl)-1,1-dioxo-2,3-dihydro-1,3-benzothiazole] | 140 | 1.5 | 
N#Cc1cc(C(=O)N2CS(=O)(=O)c3ccc(C(F)(F)F)cc32)cc(C(F)(F)F)c1O [Example 38, 3-(3-cyano-4-hydroxy-5-trifluoromethylbenzoyl)-1,1-dioxo-5-trifluoromethyl-2,3-dihydro-1,3-benzothiazole] | 180 | 16.4 | 
CCCN(CCC)S(=O)(=O)c1ccc(C(=O)O)cc1 [Probenecid, reference compound] | 111 | 0 | 171
